Assay results: publication PMC8577775, “Small molecule allosteric inhibitors of RORγt block Th17-dependent inflammation and associated gene expression in vivo” (PLoS ONE, 2021)

Tests used:
[1] = system: RORγt-dependent inflammation; assay: RORγt/Th17-dependent inflammation in vivo, overall statement (acute and chronic settings); settings: with IC50 coverage alone (same level of response)
[2] = system: PDAC PDO model T020P; assay: In vitro organoid growth assay (CellTiter-Glo 3D), T020P; assay type: cell-based, human; settings: organoid growth assay, up to 30 μM
Description: Patient derived organoids were established as previously described. Briefly, PDX tumor chunks were minced then enzymatically digested into single cells by using a tumor dissociation Kit (Miltenyi, Cat# 130-095-929). Mouse and human cells were separated through magnetic separation, and isolated tumor cells were cultured on Matrigel-coated dishes. […]
Organoids were isolated and dissociated as described above. Cell numbers were counted by trypan blue exclusion and 5000 cells per well were plated on the Matrigel coated and pre-warmed 96-well plates. […] 100 μl of CellTiter-Glo® 3D reagent (Promega cat# G9682) was added to each well after desired time points and luminescence signal measured after 30 minutes.
Supplementary file pone.0248034.s010.tif: S6 Fig Schematic of Patient-derived organoids (PDO) growth & formation assays. […] After the indicated treatment schedule organoid growth or formation was assessed by CTG assay. […]

[3] = system: IMQ-induced skin inflammation in Balb/c mice; assay: Imiquimod (IMQ)-induced skin inflammation model; assay type: in vivo, mouse; settings: day 4; for ear thickness: control-treated 0.17 ± 0.002 mm
Description: For IMQ-induced skin inflammation, wild-type (WT) Balb/c female mice, 5–8 weeks of age, were purchased from Charles River Laboratories. All mice were housed in pathogen-free conditions at Bristol Myers Squibb (Cambridge, MA). Aldara cream containing 5% imiquimod (Patterson Veterinary Supply, Inc; Devens, MA) was applied to the ears daily (11–14 mg) for 3 days. Mice were treated twice daily (BID) on days 1–4 per os (PO) with vehicle (0.5% methylcellulose/0.25% Tween80) or RORγt inhibitors at indicated doses immediately prior to Aldara application. Ear thickness was measured using micro-calipers. Tissues were harvested on day 4, 2 hours following the last compound dose. Naïve mice are completely untreated, receiving neither control vehicle for IMQ nor Compound.
For RNA isolation & gene expression, ears are collected on day 4 in RNAlater (Qiagen) and stored at 4°C until processed. Ears were homogenized using Procellys 24 homogenizer & hard tissue homogenizing beads (Bertin Instruments), 2 cycles of 30 seconds @ 6000 rpm in RLT lysis buffer according to manufacturer’s instructions. RNA was isolated using RNAeasy Plus MiniPrep columns (Qiagen) and cDNA generated using SuperScript VILO cDNA Synthesis kit (Invitrogen). Gene expression was quantified using TaqMan Fast Master Mix & and TaqMan FAM-MGB probe sets (Applied Biosystems): Gapdh, Mm99999915_g1, Il17a, Mm00439618_m1, Il17f, Mm00521423_m1, Il22, Mm01226722_g1 & Bclxl, Mm00437783_m1. QPCR reactions were run on QuantStudio 7 instrument. Relative quantification and fold changes were calculated using ddCT values against Gapdh and normalized to control-treated animals. For PDAC xenografts, RNA was isolated from tumor sections using Qiagen RNeasy kit (cat#74106), then cDNA was prepared using 2 μg of RNA and the high capacity RNA to cDNA kit (Applied Biosystems, cat#4387406) as per manufacturer’s instructions. Biomarker expression was determined using Taqman gene expression probes (S1 Table) and Universal master mix (ThermoFisher Scientific cat#4305719) with expression levels normalized to Gapdh.
For cytokine production, ears are removed, split in half using forceps and floated, dermis side-down, in DMEM media (Gibco) and incubated at 37° C for 24 hours. Following incubation, media was removed and cytokine production assessed by Luminex assay (Bio-Rad Laboratories).

[4] = system: Bclxl expression in the thymus; assay: Bclxl expression in thymus after oral dosing (QPCR); assay type: in vivo, mouse; settings: 100 mg/kg PO, C57Bl/6 female mice; S5 Fig
Description: Supplementary file pone.0248034.s009.tif: S5 Fig RORγt inhibitors reduce Bclxl expression in thymus of rodents. C57Bl/6 female mice were dosed PO with 100 mg/kg Compound 1, 2 or 3. Thymic tissues were collected from separate cohorts at 2, 8, 16 and 24 hours post-dose (n = 3 mice/timepoint). RNA was extracted from thymic tissues and Bclxl expression measured by QPCR. […] Time zero (‘0’) used as normalization timepoint and set to 1.0 RQ and mean set at 100% for % inhibition calculation. One-way ANOVA with Bonferroni correction for multiple comparisons used for statistical significance calculations. (TIF) Click here for additional data file.

## O=C(O)[C@@H]1CCC(c2nn(C(=O)c3c(Cl)cccc3C(F)(F)F)c3cccc(F)c23)=C[C@H]1O [Compound 3]
[1]
  inhibition of Th17-dependent responses: ~ 45%
[2]
  viability of T020P PDOs: did not decrease viability
[3]; 25 mg/kg PO
  ear thickness: 0.163 ± 0.002 mm
[3]; 50 mg/kg PO
  ear thickness: 0.156 ± 0.001 mm
[3]; 100 mg/kg PO
  ear thickness: 0.143 ± 0.002 mm
[3]; 50 and 100 mg/kg dosed groups
  Th17-cytokine gene expression in ear skin: reduced
[3]; oral administration, IMQ model
  Bclxl expression in skin tissues: significantly reduced
[4]
  Bclxl expression in the thymus: modulation of Bclxl expression in the thymus
